Values joined by “and” are separate entries in the source; they are usually repeats but may differ in a detail not shown here. Identical values can stand only once. Like-named read-outs stand apart in the source and are kept apart here.
How the values were obtained:
[1] = pKa measurement (cyclohexane / sodium phosphate buffers); assay type: physicochemical; details: distribution between cyclohexane and sodium phosphate buffers
[2] = tested on: numerous binding sites and receptors; assay: PDSP pharmacological screen, other receptors and binding sites; details: 10 μM; not greater than 10% for sites other than calcium channel, hERG, σ1, σ2
Excerpt: (§1) NR2B-Me was submitted to the PDSP for assessment of binding affinity against a wide range of other receptors and binding sites. A full listing of these receptors and binding sites is given in the Supplemental Results. Detailed assay protocols are available at the PDSP website (http://pdsp.cwru.edu).
(§2) Assessment of Binding Affinity against a Wide Range of Other Receptors and Binding Sites. […]

[3] = LogD7.4 measurement (1-octanol / sodium phosphate buffer); assay type: physicochemical
Experimental: The radiochemical purity of the radioligand was measured via HPLC. […] Aliquots (1 mL) were distributed to each of eight borosilicate disposable culture tubes (13 × 100 mm). Six tubes were extracted with buffer pre-treated 1-octanol (1 mL) by vortexing for one minute and then centrifuged for one minute. The organic and aqueous phases were separated. Samples of organic phase (50 µL) and aqueous phase (50 µL) were taken and separately measured for radioactivity. The remaining two tubes containing radioactivity in buffer were analyzed with HPLC to check for any decrease in radiochemical purity over the time-span of the experiment. […] LogD was calculated as log[(cpm/mL for 1-octanol phase)/(cpm/mL for aqueous phase)] using Pallas for Windows software (CompuDrug Inc.).

PC12 cell σ2 receptors = molecular target: T1, PC12 cell σ2 receptors (Rattus norvegicus, UniProt Q5U3Y7); assay: PDSP σ2 receptor binding; details: at 10 µM (Table 1 footnote: 10 µmol), PC12 cell σ2
T1 construct: endogenous in cells; host or cells: PC12 cells
T1 sequence (Q5U3Y7 1-176): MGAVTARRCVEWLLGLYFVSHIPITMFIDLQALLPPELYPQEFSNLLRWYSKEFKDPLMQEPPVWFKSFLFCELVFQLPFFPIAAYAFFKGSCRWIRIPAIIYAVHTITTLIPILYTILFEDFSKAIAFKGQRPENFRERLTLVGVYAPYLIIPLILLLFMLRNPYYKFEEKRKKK
Excerpt: as §1
(§3) Assessment of Binding Affinity against a Wide Range of Other Receptors and Binding Sites. NR2B-Me was submitted to the National Institute of Mental Health Psychoactive Drug Screening program (NIMH-PDSP) to assess binding affinity against a wide range of other receptors and binding sites (5-HT1A, 1B, 1D, 1E, 2A, 2A agonist, 2A antagonist, 2B, 2B agonist, 2B antagonist, 2C, 2C agonist, 2C antagonist, 3, 5A, 6, 7; α2; α2β2, α2β2, α3β2, α3β4, α4β2, α4β4, α7; α1A, 1A agonist, 1B, 1B agonist, 1B antagonist, 2A-2C; AMPA*; β1-3; BZPa1-3, a5, a6, rat brain site; Ca^2+-Channel; CB1-2, D1, 2, 2 agonist, 2 antagonist, 3-5; DAT; DOR; EP1-4; GABAA,B; GPR40,41,43; H1-4; HERG; IMIDAZOLINE 1; KA-R*; KOR, KORagonist, antagonist; M1, 1 agonist, 1 antagonist, 2, 3, 3 agonist, 3 antagonist, 4, 5, 5 agonist, 5 antagonist; MDR 1; mGluR1A,2,4,5,5-cloned,5-rat brain,6,8; MOR; Na^+-Channel; NET; NK1, 1 antagonist, 2, 2 antagonist, 3, 3 antagonist; NMDA; NMDA/MK801; NT-1; OXYTOCINagonist, antagonist; PAR1agonist, antagonist; PCP; PKCA, B, D, E, G; PTHR2, Purinergicagonist, antagonist; SET; σ1,2; V1, 1 agonist, 1 antagonist, 2, 2 agonist, 2 antagonist, 3, 3 agonist, 3 antagonist, VMAT1, 2).

hERG channel = hERG channel (Homo sapiens, UniProt Q12809); assay: PDSP pharmacological screen, hERG channel; details: read-out: inhibition of reference radioligand binding, hERG channel
Excerpt: as §1, §2

guinea pig σ1 receptor = guinea pig σ1 receptor (Cavia porcellus, UniProt Q60492); assay: PDSP σ1 receptor binding; details: 10 μM; read-out: inhibition of reference radioligand binding, guinea pig σ1 receptor
Excerpt: as §1, §3

calcium channel = assay: PDSP pharmacological screen, calcium channel; assay type: binding; details: 10 μM
Excerpt: as §1, §2

[4] = Experimental: For Brain. The brain (1.7 g) was homogenized in twice its volume of cold saline. […] An aliquot (450 µL) was then placed in acetonitrile (720 µL) along with carrier NR2B-Me (5 µg) and mixed well. Water (100 µL) was then added, mixed well, measured for radioactivity, and centrifuged at 10,000 g for one minute. The supernatant was analyzed via HPLC. The precipitate was measured for radioactivity to determine the recovery of radioactivity into the supernatant that had been injected onto HPLC.
For Whole Blood. […] The sample was mixed well and incubated at 37 °C for one hour. Water (300 µL) was added to lyse open all cells. An aliquot (450 µL) was then removed to a new vial, and acetonitrile (720 µL) was added. The mixture was mixed well, measured for radioactivity, and centrifuged at 10,000 g for one minute. The supernatant was analyzed via HPLC as described for brain.
For Plasma. Plasma was separated from blood cells. […] The mixture was measured for radioactivity. An aliquot (450 µL) was then placed in acetonitrile (720 µL) along with carrier NR2B-Me (5 µg) and mixed well. Water (100 µL) was then added, mixed well, measured for radioactivity, and centrifuged at 10,000 g for one minute. The supernatant was analyzed with HPLC as described for brain. The precipitate was measured for radioactivity to determine radioactivity recovery into the supernatant that had been injected onto HPLC.
(§4) The SUV due to radioligand or radiometabolite only was calculated by multiplying the total SUV of the tissue by the fraction of the radioligand or radiometabolite measured with HPLC (Supplementary Table S4).

[5] = Radiochemical stability of formulated radioligand; assay type: physicochemical
Excerpt: However, the fraction collected from HPLC contains 0.1% TFA. […] Protection with ascorbic acid was therefore used immediately after HPLC radioligand purification to maintain weakly acidic and reducing conditions.

[6] = remark: listed apart in the source
Experimental: Rats were anesthetized with 1.5% isoflurane in oxygen. […] The rats were then immediately sacrificed by decapitation, and their brains and myocardial tissues were excised.
Plasma was separated from blood cells, and a sample (50 µL) was measured for radioactivity. An aliquot (450 µL) was placed in acetonitrile (720 µL) along with carrier NR2B-Me (5 µg) and mixed well. Water (100 µL) was added, mixed well, measured for radioactivity, and centrifuged at 10,000 g for one minute. The supernatant was analyzed with radio-HPLC and the precipitate measured for radioactivity, as described for brain.
as §4

[7] = n = 3
Experimental: Human Plasma Free Fraction. Plasma free fraction (fp) was measured as described previously (6). […] If necessary, samples were left to decay to within the optimal radioactivity range for accurate γ-counter measurement.

[8] = room temperature, at least 30 min
Excerpt: Subsequent processing and analysis were as described for rat ex vivo experiments in the main text.

GluN2B receptors [9] = molecular target: T2, GluN2B receptors (Rattus norvegicus, UniProt P35439+Q00960); assay: PET displacement / pre-blocking of ^11C-NR2B-Me radioligands with Ro-25-6981, Lassen plots; assay type: in vivo; details: rat; Ro-25-6981 0.25 mg/kg i.v. 10 min before radioligand
T2 construct: from tissue; host or cells: brain of living male rats (PET imaging)
Experimental: For radioligand injection, a polyethylene catheter (PE 10) was inserted into the penile vein of a male rat and then secured with tissue adhesive and tape. […] Body temperature was monitored with a rectal probe. All PET scans were performed on a microPET Focus 220 scanner (Siemens Medical Solutions) (7,8). Data were acquired in listmode and reconstructed with Fourier rebinning + 2D filtered backprojection. A transmission scan was acquired before radioligand injection for attenuation correction. Dynamic scanning began at the time of a one-minute intravenous bolus injection of the radioligand under study (55 ± 19 MBq; volume 0.2 to 1.0 mL). The injected mass dose was 3 ± 1 nmol/kg. Challenge agents were administered intravenously 10 minutes before the radioligand for pre-blocking studies or 10 minutes after the radioligand for displacement studies. Tomographic images were analyzed with pixel-wise modeling computer software (PMOD 2.6; PMOD Group). Regions-of-interest in the brain were delineated, and time-activity curves calculated as SUV versus time.
Pre-blocking and displacement experiments were performed to assess radioligand target engagement and radioligand selectivity in vivo. […] Areas-under the curve (AUCs) from time-activity curves between 20 and 90 minutes were calculated for each radioligand. AUCs obtained from the same production of radioligand were scaled to the value (or mean value) for the baseline experiment to give relative values (relative AUC20–90 min). […] Where data permitted, the dose-response curves were fitted with GraphPad Prism software (version 8.1.1; GraphPad) to estimate the ED50 values. A dummy value of 100 pmol per kg body weight was used for zero concentration of the challenge agent in the construction of these dose-response curves. Numerical data are expressed as mean ± S.D. for n>2, or as mean and range for n = 2.

σ1 receptors = molecular target: T3, σ1 receptors (Rattus norvegicus, UniProt Q9R0C9); assay: ED50 for pre-blocking of ^18F-FTC146 uptake in rat whole brain (PET); assay type: in vivo; details: radioligand ^18F-FTC146, AUC 20-120 min
T3 construct: from tissue; host or cells: brain of living male rats (PET imaging)
Experimental: For radioligand injection, a polyethylene catheter (PE 10) was inserted into the penile vein of a male rat and then secured with tissue adhesive and tape. For dynamic scanning, the rats were secured with tape in the scanner and kept under 1.5% isoflurane anesthesia via a nose cone. Body temperature was monitored with a rectal probe. All PET scans were performed on a microPET Focus 220 scanner (Siemens Medical Solutions) (7,8). Data were acquired in listmode and reconstructed with Fourier rebinning + 2D filtered backprojection. A transmission scan was acquired before radioligand injection for attenuation correction. Dynamic scanning began at the time of a one-minute intravenous bolus injection of the radioligand under study (55 ± 19 MBq; volume 0.2 to 1.0 mL). The injected mass dose was 3 ± 1 nmol/kg. Challenge agents were administered intravenously 10 minutes before the radioligand for pre-blocking studies or 10 minutes after the radioligand for displacement studies. Tomographic images were analyzed with pixel-wise modeling computer software (PMOD 2.6; PMOD Group). Regions-of-interest in the brain were delineated, and time-activity curves calculated as SUV versus time.
Pre-blocking and displacement experiments were performed to assess radioligand target engagement and radioligand selectivity in vivo. Normally 4 doses of 0.01 mg/kg, 0.05 mg/kg, 0.25 mg/kg, and 1.25 mg/kg were used for preblocking experiments, and only 2 doses of 0.25 mg/kg and 1.25 mg/kg were used for displacement experiments. […] […] […] […] Where data permitted, the dose-response curves were fitted with GraphPad Prism software (version 8.1.1; GraphPad) to estimate the ED50 values. A dummy value of 100 pmol per kg body weight was used for zero concentration of the challenge agent in the construction of these dose-response curves. Numerical data are expressed as mean ± S.D. for n>2, or as mean and range for n = 2.

GluN2B receptors [10] = molecular target: T2, GluN2B receptors; design: method as in PMID 31924728; details: pre-blocking, radioligand ^11C-(S)-NR2B-SMe; cited from earlier work
[11] = cited from earlier work
σ2 receptor = details: at 10 µmol; cited from earlier work
GluN2B = molecular target: T4, GluN2B (Homo sapiens, UniProt Q05586+Q13224); design: method as in PMID 31924728; details: cited from earlier work
T4 construct: expressed in transfected cells; host or cells: transiently transfected mouse fibroblast cells (membrane homogenate)

[12] = cited from earlier work; remark: listed apart in the source
[13] = rat, ex vivo 30 min after intravenous injection

T2 sequence (Q00960 27-1482, other chains not shown): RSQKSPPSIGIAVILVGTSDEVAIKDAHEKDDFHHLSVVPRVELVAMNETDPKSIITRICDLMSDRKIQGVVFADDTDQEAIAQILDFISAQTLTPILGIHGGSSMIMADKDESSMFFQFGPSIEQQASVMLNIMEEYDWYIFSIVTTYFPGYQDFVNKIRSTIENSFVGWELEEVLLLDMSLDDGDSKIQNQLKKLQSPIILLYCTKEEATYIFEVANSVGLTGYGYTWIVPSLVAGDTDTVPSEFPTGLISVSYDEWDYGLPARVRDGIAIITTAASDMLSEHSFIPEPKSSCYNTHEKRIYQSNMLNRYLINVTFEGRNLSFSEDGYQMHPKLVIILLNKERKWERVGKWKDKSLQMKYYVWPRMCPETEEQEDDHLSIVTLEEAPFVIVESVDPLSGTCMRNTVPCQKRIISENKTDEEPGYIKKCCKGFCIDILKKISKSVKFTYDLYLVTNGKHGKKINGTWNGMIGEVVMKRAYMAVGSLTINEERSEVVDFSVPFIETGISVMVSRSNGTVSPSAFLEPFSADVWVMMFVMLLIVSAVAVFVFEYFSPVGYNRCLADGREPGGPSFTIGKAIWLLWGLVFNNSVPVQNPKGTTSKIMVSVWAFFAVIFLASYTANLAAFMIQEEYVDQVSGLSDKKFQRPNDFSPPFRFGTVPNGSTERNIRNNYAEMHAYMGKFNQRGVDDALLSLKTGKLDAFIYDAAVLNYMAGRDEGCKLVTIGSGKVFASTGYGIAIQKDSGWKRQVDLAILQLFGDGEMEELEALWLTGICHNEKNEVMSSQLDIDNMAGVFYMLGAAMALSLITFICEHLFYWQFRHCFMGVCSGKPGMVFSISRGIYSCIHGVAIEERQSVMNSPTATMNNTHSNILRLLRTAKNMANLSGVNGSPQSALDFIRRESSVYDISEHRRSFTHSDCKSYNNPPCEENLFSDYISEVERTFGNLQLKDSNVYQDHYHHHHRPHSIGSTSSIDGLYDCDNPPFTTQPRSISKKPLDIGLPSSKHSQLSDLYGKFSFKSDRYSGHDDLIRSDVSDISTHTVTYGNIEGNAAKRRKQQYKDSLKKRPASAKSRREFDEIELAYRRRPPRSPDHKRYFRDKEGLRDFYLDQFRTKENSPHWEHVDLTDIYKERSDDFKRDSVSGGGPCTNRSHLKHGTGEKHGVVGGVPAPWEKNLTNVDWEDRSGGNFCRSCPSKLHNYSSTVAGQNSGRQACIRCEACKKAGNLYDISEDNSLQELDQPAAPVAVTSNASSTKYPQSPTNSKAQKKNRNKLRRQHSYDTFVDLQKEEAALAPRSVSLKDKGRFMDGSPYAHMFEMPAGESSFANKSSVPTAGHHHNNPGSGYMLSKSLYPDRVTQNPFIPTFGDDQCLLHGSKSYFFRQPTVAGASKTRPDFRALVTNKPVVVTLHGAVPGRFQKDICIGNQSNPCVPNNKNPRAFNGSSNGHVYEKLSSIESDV
hERG channel, sequence (Q12809 whole entry): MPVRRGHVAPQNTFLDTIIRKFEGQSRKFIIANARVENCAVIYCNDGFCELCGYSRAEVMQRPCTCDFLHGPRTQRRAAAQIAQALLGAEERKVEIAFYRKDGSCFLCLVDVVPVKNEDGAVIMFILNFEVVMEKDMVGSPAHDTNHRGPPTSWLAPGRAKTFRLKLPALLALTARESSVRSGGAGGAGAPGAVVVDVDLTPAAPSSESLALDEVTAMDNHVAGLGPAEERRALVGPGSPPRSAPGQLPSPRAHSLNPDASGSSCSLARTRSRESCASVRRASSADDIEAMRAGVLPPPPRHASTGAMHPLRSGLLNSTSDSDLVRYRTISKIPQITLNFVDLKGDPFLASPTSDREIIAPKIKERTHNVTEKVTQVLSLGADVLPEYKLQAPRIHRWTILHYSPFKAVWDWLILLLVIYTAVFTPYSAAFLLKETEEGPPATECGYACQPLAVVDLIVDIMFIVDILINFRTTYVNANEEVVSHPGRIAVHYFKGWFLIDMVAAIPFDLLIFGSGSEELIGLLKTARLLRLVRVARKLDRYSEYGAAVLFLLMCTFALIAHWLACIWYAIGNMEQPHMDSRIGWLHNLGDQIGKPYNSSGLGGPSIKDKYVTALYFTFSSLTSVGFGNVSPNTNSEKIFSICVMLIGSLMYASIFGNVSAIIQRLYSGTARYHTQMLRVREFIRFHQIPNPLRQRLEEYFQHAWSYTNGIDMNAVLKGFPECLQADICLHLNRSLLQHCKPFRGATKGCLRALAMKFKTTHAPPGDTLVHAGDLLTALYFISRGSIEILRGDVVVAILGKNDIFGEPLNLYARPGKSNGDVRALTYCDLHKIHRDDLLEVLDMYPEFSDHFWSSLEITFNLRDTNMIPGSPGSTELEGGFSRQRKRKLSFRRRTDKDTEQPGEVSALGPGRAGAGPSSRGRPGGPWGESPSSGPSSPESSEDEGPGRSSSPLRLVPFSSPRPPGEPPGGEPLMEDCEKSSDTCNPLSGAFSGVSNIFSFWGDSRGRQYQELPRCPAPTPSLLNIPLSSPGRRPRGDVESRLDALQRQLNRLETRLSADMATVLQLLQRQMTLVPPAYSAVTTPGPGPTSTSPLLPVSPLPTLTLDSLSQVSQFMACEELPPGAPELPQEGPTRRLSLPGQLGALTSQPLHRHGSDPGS
T3 sequence (Q9R0C9 whole entry): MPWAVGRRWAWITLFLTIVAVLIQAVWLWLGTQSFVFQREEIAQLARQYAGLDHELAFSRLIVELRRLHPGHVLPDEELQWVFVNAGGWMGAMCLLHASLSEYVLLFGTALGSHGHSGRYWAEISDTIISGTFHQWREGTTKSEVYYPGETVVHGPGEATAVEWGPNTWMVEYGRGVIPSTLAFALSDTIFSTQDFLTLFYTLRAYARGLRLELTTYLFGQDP
guinea pig σ1 receptor, sequence (Q60492 whole entry): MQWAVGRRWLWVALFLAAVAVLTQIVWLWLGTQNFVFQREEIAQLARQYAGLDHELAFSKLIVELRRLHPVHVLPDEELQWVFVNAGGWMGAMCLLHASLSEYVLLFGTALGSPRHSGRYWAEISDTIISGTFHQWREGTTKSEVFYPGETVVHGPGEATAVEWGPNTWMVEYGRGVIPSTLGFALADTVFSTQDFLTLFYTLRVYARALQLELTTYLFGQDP
T4 sequence (Q13224 27-1484, species assumed, other chains not shown): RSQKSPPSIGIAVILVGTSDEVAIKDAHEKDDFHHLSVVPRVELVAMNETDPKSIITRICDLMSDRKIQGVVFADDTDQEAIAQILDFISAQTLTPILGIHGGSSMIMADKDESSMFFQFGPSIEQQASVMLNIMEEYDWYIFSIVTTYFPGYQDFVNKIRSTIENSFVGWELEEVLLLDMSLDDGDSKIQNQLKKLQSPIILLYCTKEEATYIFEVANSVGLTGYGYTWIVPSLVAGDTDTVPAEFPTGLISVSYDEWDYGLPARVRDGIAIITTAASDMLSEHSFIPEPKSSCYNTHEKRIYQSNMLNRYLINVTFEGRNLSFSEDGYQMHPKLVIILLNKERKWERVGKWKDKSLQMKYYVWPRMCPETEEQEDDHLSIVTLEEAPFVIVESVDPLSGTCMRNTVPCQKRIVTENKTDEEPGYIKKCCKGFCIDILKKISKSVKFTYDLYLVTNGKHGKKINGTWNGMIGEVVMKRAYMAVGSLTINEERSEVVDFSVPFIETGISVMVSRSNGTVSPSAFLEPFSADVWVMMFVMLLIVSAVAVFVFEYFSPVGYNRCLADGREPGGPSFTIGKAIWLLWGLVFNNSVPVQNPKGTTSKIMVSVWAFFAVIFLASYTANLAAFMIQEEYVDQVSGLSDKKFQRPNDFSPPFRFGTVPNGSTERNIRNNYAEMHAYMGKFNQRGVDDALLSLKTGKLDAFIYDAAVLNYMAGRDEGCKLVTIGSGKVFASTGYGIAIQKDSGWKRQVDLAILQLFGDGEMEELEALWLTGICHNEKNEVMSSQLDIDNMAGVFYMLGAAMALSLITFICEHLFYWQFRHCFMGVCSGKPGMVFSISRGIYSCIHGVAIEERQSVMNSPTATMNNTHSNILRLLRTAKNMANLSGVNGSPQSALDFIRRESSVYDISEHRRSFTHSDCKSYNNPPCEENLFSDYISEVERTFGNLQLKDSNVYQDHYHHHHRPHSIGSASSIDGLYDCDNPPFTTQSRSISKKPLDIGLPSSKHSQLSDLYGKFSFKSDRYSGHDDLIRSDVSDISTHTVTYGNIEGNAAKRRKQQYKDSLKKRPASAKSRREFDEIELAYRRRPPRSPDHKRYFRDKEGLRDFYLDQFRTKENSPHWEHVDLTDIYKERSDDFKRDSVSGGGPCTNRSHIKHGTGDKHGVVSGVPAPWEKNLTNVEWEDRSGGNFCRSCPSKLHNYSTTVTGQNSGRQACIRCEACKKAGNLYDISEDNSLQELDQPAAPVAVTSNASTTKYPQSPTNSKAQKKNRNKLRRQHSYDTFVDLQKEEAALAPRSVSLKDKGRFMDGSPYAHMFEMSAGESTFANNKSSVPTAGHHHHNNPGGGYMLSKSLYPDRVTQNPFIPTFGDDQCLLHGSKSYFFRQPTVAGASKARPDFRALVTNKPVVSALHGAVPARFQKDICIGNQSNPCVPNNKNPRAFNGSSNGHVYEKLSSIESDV

## COc1ccc2c(c1)CCN(CCCCc1ccc(C)cc1)CC2O (stereo not drawn) [NR2B-Me, 7-methoxy-3-(4-(p-tolyl)butyl)-2,3,4,5-tetrahydro-1H-benzo[d]azepin-1-ol]
[1]; cyclohexane/sodium phosphate buffer, read-out: pKa (apparent)
  pKa: 5.04
[2]
  inhibition of reference radioligand binding, numerous other binding sites and receptors: only weakly inhibited
[3]; 1-octanol/sodium phosphate buffer, pH 7.4, Table 1, text gives this value as measured logD7.4, read-out: cLogD7.4
  logD: 3.27
PC12 cell σ2 receptors
  inhibition at 10 µM: 90.7%
PC12 cell σ2 receptors; 10 µM
  σ2 inhibition: 91%
hERG channel
  inhibition at 10 µM: 61.7%
Guinea pig σ1 receptor
  inhibition at 10 µM: 89.7%
Calcium channel
  inhibition of reference radioligand binding, calcium channel: 39.6%

## COc1ccc2c(c1)CCN(CCCCc1ccc([11CH3])cc1)CC2O (racemic) [^11C-NR2B-Me]
[1]
  pKa (apparent): 5.04 ± 0.01
[3]; 1-octanol / sodium phosphate buffer pH 7.4, room temperature
  logD7.4: 3.27
[4]; rat brain homogenate
  conversion into radiometabolite in brain homogenate: less than 0.5%
[4]; rat plasma, 37 °C, 30 min
  In vitro stability, plasma: 70.3%
  single less lipophilic radiometabolite detected in rat plasma in vitro: about 30%
[5]
  time stable in PBS (10 mM): at least 2.5 hours
[5]; PBS 10 mM
  radioligand remaining in solution (no adsorption to glass test tubes): 98.1 ± 0.5%
[6]; rat brain, 30 min after intravenous injection
  Ex vivo stability, brain (unchanged radioligand as % of radioactivity): 99.5% and > 99%
[6]; rat plasma, 30 min after intravenous injection
  Ex vivo stability, plasma (unchanged radioligand as % of radioactivity): 46.2%
[6]; [13]
  Radioactivity conc., brain: 4.1 SUV
  Radioactivity conc., plasma: 0.04 SUV
  Radioactivity conc., whole blood: 0.300 SUV
  Tissue to plasma radioactivity ratio, brain: 103
  Tissue to plasma radioactivity ratio, plasma: 1.0
  Tissue to plasma radioactivity ratio, whole blood: 7.5
[7]
  human plasma free fraction (fp): 1.16% ± 0.14
[8]
  stability in human brain homogenate: 99.5%
  stability in human plasma: 100%
GluN2B receptors [9]
  radioactivity in brain regions at 90 min as % of peak values after pre-block: about 10%

## CSc1ccc2c(c1)CCN(CCCCc1ccc(C)cc1)CC2O (racemic) [NR2B-SMe, (R,S)-7-thiomethoxy-3-(4-(4-methyl-phenyl)butyl)-2,3,4,5-tetrahydro-1H-benzo[d]azepin-1-ol]
σ1 receptors
  ED50 in rat whole brain in vivo ^18F-FTC146: 1064 nmol/kg
GluN2B receptors [10]
  ED50 in rat whole brain in vivo ^11C-(S)-NR2B-SMe: 9.5 nmol/kg
[11]
  pKa: 5.03
σ2 receptor
  σ2 inhibition: 90%
GluN2B
  Ki: 2.2 nM
[12]
  cLogD7.4: 3.41
